Two compounds from patent publication US12310946B2, “Pharmaceutical composition for oral administration of edaravone and method of administering same” (MITSUBISHI TANABE PHARMA CORPORATION, priority 2020, dated 2025) can be followed below.

This data set is described as follows: in vitro. Particulars: human, Caco-2, pH 7.4.

Protocol: Caco-2 cells were seeded on a 24-well plate, cultured at 37° C. for 21 to 23 days in a CO2 incubator, and then a Caco-2 cell monolayer membrane permeability test was conducted. After checking the membrane resistance value of the cell layer after the culture, the culture medium in the plate was replaced with HBSS (pH 7.4). […] For the control compounds, [^3H]propranolol as a high membrane permeability control and [^14C]mannitol as a low membrane permeability control were used.

`CC(C)NCC(O)COc1cccc2ccccc12` (centres unmarked) [[^3H]Propranolol, [^3H]propranolol] displayed a Papp A→B at 2 h, 10 μmol/L of 28.9 ± 1.1 ×10⁻⁶ cm/s.
For `OC[C@@H](O)[C@@H](O)[C@H](O)[C@H](O)CO` [[^14C]Mannitol, [^14C]mannitol] the value was 0.53 ± 0.007 ×10⁻⁶ cm/s.

A word on the Papp A→B: it is how fast a substance crosses the layer from the apical side.
